The record followed here is patent publication US9957274B2, “Indane inhibitors of EED and methods of their use” (AbbVie Inc., priority 2016, dated 2018).

Read-outs that look alike come from different tables or passages of the source.

The subject of assay [1] is H3K27me3 in OCILY19 cells. Description: H3K27me3 AlphaLISA assay in OCILY19 cells. It counts as cell-based. The conditions noted are these: Homo sapiens, OCI-LY19, 144 h, 6 days with compound, read-out: OCILY-19 IC50. As for the experimental part:
(§1) 5,000 cells were plated into each well of 96-well Corning CellBing cell culture plates and incubated overnight at 37° C. in a humidified CO2 incubator. […] The cell culture plates were then incubated for 6 more days. H3K27me3 AlphaLISA assay was performed on the cell culture samples by using AlphaLISAR® H3K27me3 Cellular Detection Kit (PerkinElmer) and 96-well white half-area plates (PerkinElmer).
A general note: Bead proximity is the source of the signal in Alpha formats.

A further assay deals with H3K27me3 in G401 cells. Kind of assay: H3K27me3 AlphaLISA assay in G401 cells. It counts as cell-based. To be noted: Homo sapiens, G-401, 144 h, 6 days with compound. The protocol:
as §1, with “G401 cells (ATCC catalog # CRL-1441) were maintained in McCoy's 5a medium (ATCC) supplemented with 10% heat-inactivated FBS (HyClone) at 37° C. in a humidified CO2 incubator. OCILY19 cells (DSMZ catalog #ACC 528) were maintained in IMDM (Invitrogen) supplemented with 10% human serum (Sigma) at 37° C. in a humidified CO2 incubator. 5,000” for “5,000”

The next assay relates to Pfeiffer cells. Description: CTG cell viability assay (CellTiter-Glo). The class given is cell-based. The conditions noted are these: Homo sapiens, 240 h. As for the experimental part:
1,000 cells were plated into each well of 96-well Corning CellBing cell culture plates and incubated overnight at 37° C. in a humidified CO2 incubator. […] The cell culture plates were then incubated for 10 more days. CTG cell viability assay was performed on the cell culture samples by using CellTiter-Glo® Luminescent Cell Viability Assay Kit (Promega).
(In general: In ATP-based viability assays light output follows the ATP content of the culture.)

For the next assay, the target named is EED (Homo sapiens, UniProt O75530). Kind of assay: EED TR-FRET Binding Assay (modified LanthaScreen competition assay). The essentials:
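Competition binding in a modified LanthaScreen format, in 20 mM Tris-HCl pH 7.5, 200 mM NaCl, 0.01% Tween-20, 10 uM DTT and 0.05% BSA. Reactions ran 1 hour at 25° C before TR-FRET detection.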
In general terms: TR-FRET usually uses a lanthanide donor and a delayed reading to cut background.

[2] abbreviates: Pfeiffer, read-out: Cell Proliferation IC50 (uM).
Setting [3] is: Pfeiffer cells, 10 days with compound, CellTiter-Glo, read-out: Cell Proliferation IC50.

Chain of EED (O75530 whole entry): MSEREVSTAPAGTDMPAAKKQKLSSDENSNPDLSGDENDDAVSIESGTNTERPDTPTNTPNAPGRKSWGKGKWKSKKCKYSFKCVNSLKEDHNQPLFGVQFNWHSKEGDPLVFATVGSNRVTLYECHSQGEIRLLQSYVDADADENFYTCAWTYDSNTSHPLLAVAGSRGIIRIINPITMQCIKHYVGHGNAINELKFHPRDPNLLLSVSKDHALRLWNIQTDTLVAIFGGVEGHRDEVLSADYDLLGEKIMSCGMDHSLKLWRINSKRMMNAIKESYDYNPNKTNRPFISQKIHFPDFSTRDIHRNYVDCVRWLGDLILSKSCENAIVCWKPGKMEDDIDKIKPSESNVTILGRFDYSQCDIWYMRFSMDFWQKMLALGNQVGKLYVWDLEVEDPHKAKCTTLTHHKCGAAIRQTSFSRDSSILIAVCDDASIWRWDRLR

For the compound `CN(C)[C@H]1CN(C2CCc3cccc(F)c32)C[C@@H]1c1ccc(N2CCN(S(C)(=O)=O)CC2)cc1` (mixture of isomers) [Example 1, (3R,4S)-1-(7-fluoro-2,3-dihydro-1H-inden-1-yl)-4-{4-[4-(methanesulfonyl)piperazin-1-yl]phenyl}-N,N-dimethylpyrrolidin-3-amine], the values for the IC50 (in assay [1]; in the assay with H3K27me3 in G401 cells; in the assay on Pfeiffer cells (setting [2])) were 62.1 nM, 55.5 nM and 0.0725 µM, respectively.

Regarding `CN(C)[C@H]1CN(C2CCc3cccc(F)c32)C[C@@H]1c1cn(C)c2cc(C(=O)N3CC[C@@H](O)C3)ccc12` (mixture of isomers) [Example 112, rac-{3-[(3S,4R)-4-(dimethylamino)-1-(7-fluoro-2,3-dihydro-1H-inden-1-yl)pyrrolidin-3-yl]-1-methyl-1H-indol-6-yl}[(3R)-3-hydroxypyrrolidin-1-yl]methanone], the IC50 turned out to be 1.2 nM on EED, 446 nM in assay [1], 70.2 nM in the assay on H3K27me3 in G401 cells and 0.133 µM in the assay on Pfeiffer cells (setting [3]).

Turning to `CN(C)[C@H]1CN(C2CCc3cccc(F)c32)C[C@@H]1c1cn(C)c2c(C(=O)N3C[C@H](O)[C@@H](O)C3)cccc12` (mixture of isomers) [Example 113, rac-[(3S,4S)-3,4-dihydroxypyrrolidin-1-yl]{3-[(3S,4R)-4-(dimethylamino)-1-(7-fluoro-2,3-dihydro-1H-inden-1-yl)pyrrolidin-3-yl]-1-methyl-1H-indol-7-yl}methanone], the IC50 at EED is 0.679 nM; in assay [1] it was 3280 nM; in the assay on H3K27me3 in G401 cells, 799 nM; with Pfeiffer cells (setting [3]), 0.399 µM.

As to `CN(C)[C@H]1CN(C2CCc3cccc(F)c32)C[C@@H]1c1ccc(N2CCN(S(C)(=O)=O)CC2)cc1` (mixture of isomers) [Example 2, rac-(3R,4S)-1-(7-fluoro-2,3-dihydro-1H-inden-1-yl)-4-{4-[4-(methanesulfonyl)piperazin-1-yl]phenyl}-N,N-dimethylpyrrolidin-3-amine], the IC50 in assay [1] worked out at 140 nM; in the assay on H3K27me3 in G401 cells, 99.2 nM; in the assay on Pfeiffer cells (setting [2]), 0.126 µM.

Turning to `CN(C)[C@@H]1CN(C2CCc3cccc(F)c32)C[C@H]1c1ccc(Br)cc1` (mixture of isomers) [Example 6, rac-(3S,4R)-4-(4-bromophenyl)-1-(7-fluoro-2,3-dihydro-1H-inden-1-yl)-N,N-dimethylpyrrolidin-3-amine], the IC50 at EED amounted to 4.77 nM; in assay [1], 1760 nM; in the assay on H3K27me3 in G401 cells, 244 nM; in the assay with Pfeiffer cells (setting [3]), 3.3 µM.

As to `CN(C)[C@@H]1CN(C2CCc3cccc(F)c32)C[C@H]1c1ccc(Cl)cc1` (mixture of isomers) [Example 7, rac-(3S,4R)-4-(4-chlorophenyl)-1-(7-fluoro-2,3-dihydro-1H-inden-1-yl)-N,N-dimethylpyrrolidin-3-amine], the IC50 at EED turned out to be 6.08 nM; in assay [1], 3120 nM; with H3K27me3 in G401 cells it was 3190 nM; in the assay on Pfeiffer cells (setting [3]), 2.34 µM.

In the case of `CN(C)[C@@H]1CN([C@@H]2CCc3cccc(F)c32)C[C@H]1c1ccc(C#N)cc1` (racemic) [Example 19, rac-4-{(3R,4S)-4-(dimethylamino)-1-[(1R)-7-fluoro-2,3-dihydro-1H-inden-1-yl]pyrrolidin-3-yl}benzonitrile], the IC50 at EED was 12.5 nM; in assay [1], 597 nM; in the assay with H3K27me3 in G401 cells, 725 nM; in the assay with Pfeiffer cells (setting [3]), 0.654 µM.

With `COC(=O)c1ccc([C@@H]2CN(C3CCc4cccc(F)c43)C[C@H]2N(C)C)cc1` (mixture of isomers) [Example 22, rac-methyl 4-[(3R,4S)-4-(dimethylamino)-1-(7-fluoro-2,3-dihydro-1H-inden-1-yl)pyrrolidin-3-yl]benzoate], the IC50 is 2.85 nM on EED, 944 nM in assay [1], 449 nM in the assay with H3K27me3 in G401 cells and 0.422 µM in the assay on Pfeiffer cells (setting [3]).

As to `COc1ccc([C@@H]2CN(C3CCc4cccc(F)c43)C[C@H]2N(C)C)cc1OC` (mixture of isomers) [Example 23, rac-(3S,4R)-4-(3,4-dimethoxyphenyl)-1-(7-fluoro-2,3-dihydro-1H-inden-1-yl)-N,N-dimethylpyrrolidin-3-amine], the IC50 turned out to be 2.72 nM at EED, 393 nM in assay [1], 198 nM with H3K27me3 in G401 cells and 0.921 µM in the assay with Pfeiffer cells (setting [3]).

For `CCS(=O)(=O)N1CCN(c2ccc([C@H]3CN(C4CCc5cccc(F)c54)C[C@@H]3N(C)C)cc2)CC1` (mixture of isomers) [Example 49, rac-(3R,4S)-4-{4-[4-(ethanesulfonyl)piperazin-1-yl]phenyl}-1-(7-fluoro-2,3-dihydro-1H-inden-1-yl)-N,N-dimethylpyrrolidin-3-amine], the IC50 at EED was found to be 0.739 nM; in assay [1], 200 nM; in the assay on H3K27me3 in G401 cells it was 182 nM; in the assay with Pfeiffer cells (setting [3]) it was 0.194 µM.

As to `CN(C)C(=O)N1CCN(c2ccc([C@H]3CN(C4CCc5cccc(F)c54)C[C@@H]3N(C)C)cc2)CC1` (mixture of isomers) [Example 63, rac-4-{4-[(3S,4R)-4-(dimethylamino)-1-(7-fluoro-2,3-dihydro-1H-inden-1-yl)pyrrolidin-3-yl]phenyl}-N,N-dimethylpiperazine-1-carboxamide], the IC50 at EED is 1.47 nM; in assay [1], 191 nM; in the assay with H3K27me3 in G401 cells, 55.6 nM; with Pfeiffer cells (setting [3]), 0.0727 µM.

Regarding `CN(C)[C@@H]1CN(C2CCc3cccc(F)c32)C[C@H]1c1ccc2c(c1)OCO2` (mixture of isomers) [Example 65, rac-(3S,4R)-4-(2H-1,3-benzodioxol-5-yl)-1-(7-fluoro-2,3-dihydro-1H-inden-1-yl)-N,N-dimethylpyrrolidin-3-amine], the IC50 is 1.75 nM at EED, 306 nM in assay [1], 576 nM with H3K27me3 in G401 cells and 0.948 µM with Pfeiffer cells (setting [3]).

As for `CN(C)[C@H]1CN(C2CCc3cccc(F)c32)C[C@@H]1c1ccc(-c2cnn(C)c2)cc1` (mixture of isomers) [Example 70, rac-(3R,4S)-1-(7-fluoro-2,3-dihydro-1H-inden-1-yl)-N,N-dimethyl-4-[4-(1-methyl-1H-pyrazol-4-yl)phenyl]pyrrolidin-3-amine], the IC50 at EED turned out to be 0.853 nM; in assay [1], 248 nM; with H3K27me3 in G401 cells, 129 nM; in the assay with Pfeiffer cells (setting [3]), 0.266 µM.

For `CN(C)[C@H]1CN(C2CCc3cccc(F)c32)C[C@@H]1c1ccc(-c2cnn(CC(N)=O)c2)cc1` (mixture of isomers) [Example 71, rac-2-(4-{4-[(3S,4R)-4-(dimethylamino)-1-(7-fluoro-2,3-dihydro-1H-inden-1-yl)pyrrolidin-3-yl]phenyl}-1H-pyrazol-1-yl)acetamide], the IC50 at EED worked out at 1.13 nM; in assay [1], 155 nM; in the assay with H3K27me3 in G401 cells, 52.1 nM; in the assay on Pfeiffer cells (setting [3]), 0.108 µM.

Consider `CNC(=O)Cn1cc(-c2ccc([C@H]3CN(C4CCc5cccc(F)c54)C[C@@H]3N(C)C)cc2)cn1` (mixture of isomers) [Example 72, rac-2-(4-{4-[(3S,4R)-4-(dimethylamino)-1-(7-fluoro-2,3-dihydro-1H-inden-1-yl)pyrrolidin-3-yl]phenyl}-1H-pyrazol-1-yl)-N-methylacetamide], for which the IC50 stood at 0.923 nM at EED, 132 nM in assay [1], 39.9 nM with H3K27me3 in G401 cells and 0.121 µM with Pfeiffer cells (setting [3]).

Consider `CN(C)[C@@H]1CN(C2CCc3cccc(F)c32)C[C@H]1c1ccc(N2CCN(c3ccncn3)CC2)cc1` (mixture of isomers) [Example 74, rac-(3S,4R)-1-(7-fluoro-2,3-dihydro-1H-inden-1-yl)-N,N-dimethyl-4-{4-[4-(pyrimidin-4-yl)piperazin-1-yl]phenyl}pyrrolidin-3-amine], for which the IC50 turned out to be 0.633 nM at EED, 363 nM in assay [1], 185 nM in the assay with H3K27me3 in G401 cells and 0.107 µM in the assay on Pfeiffer cells (setting [3]).

As for `CN(C)[C@@H]1CN(C2CCc3cccc(F)c32)C[C@H]1c1ccc(N2CCN(c3ccccn3)CC2)cc1` (mixture of isomers) [Example 75, rac-(3S,4R)-1-(7-fluoro-2,3-dihydro-1H-inden-1-yl)-N,N-dimethyl-4-{4-[4-(pyridin-2-yl)piperazin-1-yl]phenyl}pyrrolidin-3-amine], the IC50 at EED turned out to be 0.906 nM; in assay [1] it was 3170 nM; in the assay with H3K27me3 in G401 cells, 2300 nM; in the assay with Pfeiffer cells (setting [3]) it was 1.76 µM.

As to `CC(=O)N1CCN(c2ccc([C@H]3CN(C4CCc5cccc(F)c54)C[C@@H]3N(C)C)cc2)CC1` (stereo partly drawn) [Example 43, 1-(4-{4-[(3S,4R)-4-(dimethylamino)-1-(7-fluoro-2,3-dihydro-1H-inden-1-yl)pyrrolidin-3-yl]phenyl}piperazin-1-yl)ethan-1-one], the results for the IC50 (on EED; in assay [1]; in the assay with H3K27me3 in G401 cells) were 0.297 nM, 50.4 nM and 32.6 nM, respectively.
